Counter-ions that a name gives are not always drawn. Like-named read-outs stand apart in the source and are kept apart here.
How the values were obtained:
[1] = rat, in vivo
Method: (§1) Plasma Timecourse of Peripheral Phenolic Opioid Antagonists Following PO Administration to Rat
(§2) Oral dosing: The test compounds were dissolved in saline and dosed via oral gavage into jugular vein cannulated male Sprague-Dawley rats. N-MTX and N-MNLX, each at 20 mg/kg, were used as positive controls and the test compounds were dosed at the doses indicated in Tables 1 and 2. At specified time points, blood samples were withdrawn, quenched into methanol, centrifuged at 14000 rpm @ 4° C., and stored at −80° C. until analysis. Samples were quantified via LC/MS/MS using an ABI 3000 triple-quad mass spectrometer.

[2] = Plasma timecourse of N-MTX following PO administration to rat; conditions: for pharmacokinetic profile (e.g. oral bioavailability), N-MTX: oral dosing in rats, Cmax and/or persistence of exposure compared with N-MTX itself; for detectable levels of N-MTX: oral dosing in rats at the doses of Table 1
Method: as §1, §2

[3] = Plasma timecourse of N-MNLX following PO administration to rat; type: in vivo, male Sprague-Dawley rats; conditions: oral dosing in rats; Cmax and/or persistence of exposure compared with N-MNLX itself
Method: as §1, §2

Compound | pharmacokinetic profile (e.g. oral bioavailability), N-MTX [2] | detectable levels of N-MTX [2] | other results
CN(CCN)C(=O)Oc1ccc2c3c1O[C@H]1C(=O)CC[C@@]4(O)[C@@H](C2)[N+](C)(CC2CC2)CC[C@]314.Cl.[Cl-] (stereo partly drawn) [Example 1, (R)—N-Methylnaltrexone 3-(N-methyl-N-(2-aminoethyl))carbamate] |  |  | pharmacokinetic profile (e.g. oral bioavailability), N-MTX [1]: improved pharmacokinetic profile
CC(C)C[C@H](N)C(=O)NCCN(C)C(=O)Oc1ccc2c3c1O[C@H]1C(=O)CC[C@@]4(O)C(C2)[N@+](C)(CC2CC2)CC[C@]314 [Example 2, (R)—N-Methylnaltrexone 3-(N-methyl-N-(2-leucinylamino))ethylcarbamate Hydrochloride] | improved pharmacokinetic profile |  | 
CN(CCNC(=O)[C@@H](N)CCCNC(=N)N)C(=O)Oc1ccc2c3c1O[C@H]1C(=O)CC[C@@]4(O)C(C2)[N@+](C)(CC2CC2)CC[C@]314 [Example 3, (R)—N-Methylnaltrexone 3-(N-methyl-N-(2-arginylamino))ethylcarbamate] | improved pharmacokinetic profile |  | 
CC(=O)N[C@@H](CCCNC(=N)N)C(=O)NCCN(C)C(=O)Oc1ccc2c3c1O[C@H]1C(=O)CC[C@@]4(O)C(C2)[N@+](C)(CC2CC2)CC[C@]314 [Example 4, (R)—N-Methylnaltrexone 3-(N-methyl-N-(2-N-acetylarginylamino))ethylcarbamate] |  | did not afford detectable levels of N-MTX | 
CN(CCNC(=O)[C@@H](N)CC(N)=O)C(=O)Oc1ccc2c3c1O[C@H]1C(=O)CC[C@@]4(O)C(C2)[N@+](C)(CC2CC2)CC[C@]314 [Example 5, (R)—N-Methylnaltrexone 3-(N-methyl-N-(2-N-asparaginylamino))ethylcarbamate] |  | did not afford detectable levels of N-MTX | 
CN(CCNC(=O)[C@@H](N)CC(=O)O)C(=O)Oc1ccc2c3c1O[C@H]1C(=O)CC[C@@]4(O)C(C2)[N@+](C)(CC2CC2)CC[C@]314 [Example 6, (R)—N-Methylnaltrexone 3-(N-methyl-N-(2-N-aspartinylamino))ethylcarbamate] | improved pharmacokinetic profile |  | 
CN(CCNC(=O)[C@@H](N)Cc1ccc(O)cc1)C(=O)Oc1ccc2c3c1O[C@H]1C(=O)CC[C@@]4(O)C(C2)[N@+](C)(CC2CC2)CC[C@]314 [Example 7, (R)—N-Methylnaltrexone 3-(N-methyl-N-(2-N-tyrosinylamino))ethylcarbamate] |  | did not afford detectable levels of N-MTX | 
C[C@H](N)C(=O)NCCN(C)C(=O)Oc1ccc2c3c1O[C@H]1C(=O)CC[C@@]4(O)C(C2)[N@+](C)(CC2CC2)CC[C@]314 [Example 8, (R)—N-Methylnaltrexone 3-(N-methyl-N-(2-N-alaninylamino))ethylcarbamate] |  | did not afford detectable levels of N-MTX | 
CN(CCNC(=O)[C@@H](N)CCCCN)C(=O)Oc1ccc2c3c1O[C@H]1C(=O)CC[C@@]4(O)C(C2)[N@+](C)(CC2CC2)CC[C@]314 [Example 9, (R)—N-Methylnaltrexone 3-(N-methyl-N-(2-N-lysinylamino))ethylcarbamate] |  | did not afford detectable levels of N-MTX | 
CN(CCNC(=O)[C@H](CCCNC(=N)N)NC(=O)CN)C(=O)Oc1ccc2c3c1O[C@H]1C(=O)CC[C@@]4(O)C(C2)[N@+](C)(CC2CC2)CC[C@]314 [Example 10, (R)—N-Methylnaltrexone 3-(N-methyl-N-(2-N-glycinylarginylamino))ethylcarbamate] | improved pharmacokinetic profile |  | 
CC(=O)NCC(=O)N[C@@H](CCCNC(=N)N)C(=O)NCCN(C)C(=O)Oc1ccc2c3c1O[C@H]1C(=O)CC[C@@]4(O)C(C2)[N@+](C)(CC2CC2)CC[C@]314 [Example 11, (R)—N-Methylnaltrexone 3-(N-methyl-N-(2-N—(N-acetyl)glycinylarginylamino))-ethylcarbamate] | improved pharmacokinetic profile |  | 
C[C@H](NC(=O)CN)C(=O)NCCN(C)C(=O)Oc1ccc2c3c1O[C@H]1C(=O)CC[C@@]4(O)C(C2)[N@+](C)(CC2CC2)CC[C@]314 [Example 12, (R)—N-Methylnaltrexone 3-(N-methyl-N-(2-N-glycinylalaninylamino))-ethylcarbamate] |  | did not afford detectable levels of N-MTX | 
CN(CCNC(=O)[C@H](Cc1ccccc1)NC(=O)CN)C(=O)Oc1ccc2c3c1O[C@H]1C(=O)CC[C@@]4(O)C(C2)[N@+](C)(CC2CC2)CC[C@]314 [Example 13, (R)—N-Methylnaltrexone 3-(N-methyl-N-(2-N-glycinylphenylalaninylamino))-ethylcarbamate] | improved pharmacokinetic profile |  | 
C=CC[N+]1(C)CC[C@]23c4c5ccc(OC(=O)N(C)CCN)c4O[C@H]2C(=O)CC[C@@]3(O)[C@H]1C5 (stereo partly shown) [Example 14, N-Methylnaloxone 3-(N-methyl-N-(2-aminoethyl))carbamate] |  |  | pharmacokinetic profile (e.g. oral bioavailability), N-MNLX [3]: improved pharmacokinetic profile
C=CC[N+]1(C)CC[C@]23c4c5ccc(O)c4O[C@H]2C(=O)CC[C@@]3(O)[C@H]1C5.[Br-] (stereo partly shown) [N-MNLX, N-methylnaloxone, reference compound] |  |  | pharmacokinetic profile (e.g. oral bioavailability), N-MNLX [3]: poor pharmacokinetic profiles
C[N@@+]1(CC2CC2)CC[C@]23c4c5ccc(O)c4O[C@H]2C(=O)CC[C@@]3(O)C1C5 [N-MTX, (R)—N-methylnaltrexone, reference compound] | poor pharmacokinetic profiles |  | 

Reference: patent US20110105381A2, “Prodrugs of Peripheral Phenolic Opioid Antagonists” (PharmacoFore, Inc., priority 2007, published 2011)
